101 molecules from ChEMBL document CHEMBL3507680, “University of Dundee, Gates Library screen for HepG2 cell viability” can be followed below.

A short description of this data set: Human HepG2 cell viability assay in 384 well format. Also noted: dose 125 nL, time 70.5 hour; cytotoxicity at 70.5 h: concentration not given beside the values. The class given is toxicity, cell-based. Conditions: HepG2 cells, read-out: Inhibition.
Regarding `CCc1nnc(Nc2cc(C)nc(C3CCN(c4cnccn4)C3)n2)s1` (stereo unspecified), the cytotoxicity at 70.5 h is -15.3%.

Consider `CC(=O)N[C@@H]1CN(S(=O)(=O)c2ccc(Cl)cc2)C[C@H]1O`, for which the cytotoxicity at 70.5 h was -7.41%.

As for `Cc1cc(Nc2ncccn2)nc(C2CCCN(CCO)C2)n1` (stereo unspecified), the cytotoxicity at 70.5 h is -9.85%. Regarding `O=C1CCC[C@]2(CN(S(=O)(=O)N3CCCCC3)C[C@H]2c2cccnc2)N1`, the cytotoxicity at 70.5 h is -6.21%. As for `CCCC(=O)N1CCCC(c2cc3cccnc3c(O)n2)C1` (stereo unspecified), the cytotoxicity at 70.5 h was -13.1%.

Regarding `Cn1ccc(C(=O)N2CCCC(c3cc4cccnc4c(O)n3)C2)n1` (stereo unspecified), the cytotoxicity at 70.5 h is -9.08%. The value for `FC(F)(F)c1cc(C2CCNCC2)nc(-c2ccsc2)n1` was -11.8%. The value for `CN1CCN(c2nc(O)cc(Cc3ccccc3F)n2)CC1` was -4.68%.

Turning to `CCN1CCN(c2nc(O)cc(Cc3ccccc3F)n2)CC1`, the cytotoxicity at 70.5 h was -0.665%. The value for `CC1(c2cc[nH]n2)CCN(C(=O)c2ccc(Cl)cc2)CC1` was -4.57%; that for `NC(=O)C1(Cc2ccc(-c3ccccc3)cc2)CCCNC1` (stereo unspecified) was -1.37%; that for `CN1CCC(c2cncc(C(=O)NCc3ccc(F)cc3)n2)CC1` was -5.99%. The value for `Oc1cc(CC2COCCN(CC3(O)CCOCC3)C2)ncn1` (stereo unspecified) was 23%; that for `CC(C)CCNC(=O)C1CCCN1C(=O)Nc1cccc(F)c1` (stereo unspecified) was -6.59%; that for `COCCNc1nnc(-c2cnc(C)cn2)s1` was -3.71%. The value for `c1cc(-c2cnc(NC3CC3)nc2[C@@H]2CCCO2)ccn1` was -8.62%; that for `CC(C)Nc1ncc(-c2ccncc2)c([C@@H]2CCCO2)n1` was -8.69%; that for `CC(=O)N1CCOC(c2c(C(=O)O)sc3ccccc23)C1` (stereo unspecified) was -7.22%. Regarding `COc1ccccc1C1CNCCN1C(=O)c1ccc(F)cc1` (stereo unspecified), the cytotoxicity at 70.5 h was 0.353%. The value for `Cc1nc(C(=O)NCc2ccccn2)cc(C2CCCN2)n1` (stereo unspecified) was 20.2%; that for `CNC(=O)c1cccc(CC2COCCN(Cc3ccc(C)o3)C2)n1` (stereo unspecified) was -2.79%. The value for `NC(=O)c1ccccc1Oc1cccc(C2CCCNC2)n1` (stereo unspecified) was -4.29%.

`CC(C)CN1CCCC1c1cc[nH]n1` (stereo unspecified): the cytotoxicity at 70.5 h was -1.98%. The value for `CCC(=O)N1CCN(C)C(=O)C(Cc2ccccc2-c2cccs2)C1` (stereo unspecified) was -1.38%; that for `COCCN1CCC(c2ncc(C(=O)N3CCOCC3)c(C)n2)CC1` was -1.72%; that for `CC(C)(C)n1nnnc1CN(CCc1ccccc1)Cc1ccccc1` was 1.44%. With `Cc1nnsc1C(=O)N1CCCCC1c1cc2nc(C)c(C)c(O)n2n1` (stereo unspecified), the cytotoxicity at 70.5 h is -2.13%. In the case of `Fc1ccc(CN2CCC(c3noc(-c4cnccn4)n3)CC2)cc1F`, the cytotoxicity at 70.5 h is -1.05%. The value for `Fc1ccccc1CN1CCC(c2noc(-c3ccccn3)n2)CC1` was 1.88%; that for `O=C(C1CCOC1)N1Cc2ccccc2OC2(CCOCC2)C1` (stereo unspecified) was -2.81%; that for `Fc1cccc(CN2CCC(c3noc(-c4ccncc4)n3)CC2)c1F` was 2.58%. The value for `COc1cc2cc3c(nc2cc1OC)OCCN(Cc1cccs1)C3` was 28%; that for `COc1cccc(CNCc2nc3ccccc3c(=O)[nH]2)c1` was 1.76%.

Take `Cc1cnc(-c2nc(O)c3c(n2)CN(C(=O)C2CCOC2)CC3)cn1` (stereo unspecified): the cytotoxicity at 70.5 h is -1.76%. Regarding `Cc1cnc(-c2nc(O)c3c(n2)CN(C(=O)CC2CCCC2)CC3)cn1`, the cytotoxicity at 70.5 h is -2.15%.

As to `CC1Cc2ccccc2N1C(=O)Cn1nc(-c2cccs2)cc(N)c1=O` (stereo unspecified), the cytotoxicity at 70.5 h is -3.41%. For the molecule `Cc1nc2cc(C(=O)N3CCn4c(nnc4C4CC4)C3)ccc2s1`, the cytotoxicity at 70.5 h is -2.23%. The value for `c1cc(N2CCCCC2)ccc1-c1noc(CN2CCOCC2)n1` was -0.0335%. Turning to `Cc1nc2ccc(C(=O)N3CCC(COc4ccccn4)CC3)cc2[nH]1`, the cytotoxicity at 70.5 h turned out to be 44.6%.

Regarding `Cc1ccc(CNCCN2CCOCC2)o1`, the cytotoxicity at 70.5 h was found to be 8.67%. With `CCNC(=O)C1(Cc2ccc(-c3ccccc3)cc2)CCCNC1` (stereo unspecified), the cytotoxicity at 70.5 h was determined as 4.78%. Take `CN1CCC(c2cccc(-c3cccc(C(=O)O)c3)n2)CC1`: the cytotoxicity at 70.5 h is -8.16%. The value for `Clc1ccc(CN(CCN2CCOCC2)Cc2cccnc2)cc1Cl` was -5.5%; that for `Cc1ccc(N(C)[C@@H]2CC[C@@H]3CN(C(=O)C4CCOCC4)C[C@@H]32)nn1` was -6.01%. Consider `O=C(Cc1ccc(O)cc1)N1CCCC(O)(CN2CCOCC2)CC1` (stereo unspecified), for which the cytotoxicity at 70.5 h was -7.8%.

On to `CS(=O)(=O)N[C@@H]1CN(C(=O)c2cc3ccccc3s2)C[C@H]1O`, for which the cytotoxicity at 70.5 h was 19%.

As for `COc1ccc2[nH]cc(C(=O)N3C[C@@H](O)[C@H](NS(C)(=O)=O)C3)c2c1`, the cytotoxicity at 70.5 h is -6.21%. On to `OCCN1CCCCC1c1cc[nH]n1` (stereo unspecified), for which the cytotoxicity at 70.5 h was -8.74%. The value for `CCOCC(=O)N1C[C@@H](O)[C@H](NC(C)=O)C1` was -4.78%; that for `CO[C@H]1CN(S(=O)(=O)c2ccc(C)cc2)C[C@@]12CCCO2` was -6.6%. The value for `Cc1cc(CC2COCCN(CCc3ccccc3)C2)ncn1` (stereo unspecified) was 17.8%. For the molecule `CCn1ccc2ccnc(CC3CN(C(=O)c4ccc(F)cc4)C3)c21`, the cytotoxicity at 70.5 h was -6.52%. For the molecule `CC(=O)N1CCN([C@@H]2CN(C(=O)Cc3ccccc3C)C[C@H]2O)CC1`, the cytotoxicity at 70.5 h is -2.44%.

With `NC(=O)c1cnc(NCC(=O)NCc2ccco2)c(Cl)c1`, the cytotoxicity at 70.5 h is -9.01%.

As to `CSc1cc2c(cc1NC(=O)NCc1ccncc1)OCCO2`, the cytotoxicity at 70.5 h is 2.15%. With `CSc1cc2c(cc1NC(=O)N(C)Cc1cnn(C)c1)OCCO2`, the cytotoxicity at 70.5 h turned out to be 2.84%. The value for `COCCN(C)C(=O)Nc1cc2c(cc1SC)OCCO2` was 10.9%; that for `CC(NC1(CNS(C)(=O)=O)CCOCC1)c1ccccc1` (stereo unspecified) was -8.35%; that for `CCCS(=O)(=O)NC(C)c1cccc(-n2cccn2)c1` (stereo unspecified) was -6.77%.

As for `Cc1nc(NC(=O)NCc2cccnc2NCCN(C)C)sc1C`, the cytotoxicity at 70.5 h is -2.85%.

As for `CNC(=O)CNC(=O)Nc1ccc(Br)c(F)c1`, the cytotoxicity at 70.5 h is -4.08%. The value for `CCC(NC(=O)c1ccco1)c1nc(C(F)(F)F)cs1` (stereo unspecified) was -6.77%; that for `CC(=O)NCC(=O)N(CCc1ccccc1)C1CCOC1` (stereo unspecified) was -9.4%; that for `N#Cc1cccc(OC2CCN(C(=O)c3cncc(O)c3)CC2)c1` was -2.58%.

For the molecule `Cc1nnc(NCc2ccc(Br)cc2)o1`, the cytotoxicity at 70.5 h was -4.41%.

In the case of `Cc1nnc(NCc2ccc(Cl)cc2)o1`, the cytotoxicity at 70.5 h was -6.23%. Regarding `CC(NS(=O)(=O)CC1(C#N)CCCC1)c1cccc(-n2cccn2)c1` (stereo unspecified), the cytotoxicity at 70.5 h was -3.64%.

Regarding `OCCCN1CCCC1c1ccc(Br)cc1` (stereo unspecified), the cytotoxicity at 70.5 h was -9.27%. The value for `CNC(=O)c1cccc(CNC2CCCSc3ccccc32)c1` (stereo unspecified) was -5.82%; that for `O=C(NCCc1nncn1C1CC1)C1(Cc2ccccc2)CCC1` was -1.53%; that for `CC(C(=O)N(C)Cc1ccc(Br)o1)n1cccn1` (stereo unspecified) was -4.49%. The value for `CC(OCC1CC1)C(=O)N1CCCN(c2cccnn2)CC1` (stereo unspecified) was -5.5%; that for `CC(C)(CNC(=O)Nc1ccc(S(=O)(=O)C(F)F)cc1)N1CCOCC1` was -7.87%.

Consider `CS(=O)(=O)N1CCN(C(=O)CCC2CCCO2)CC1` (stereo unspecified), for which the cytotoxicity at 70.5 h was -14.1%. The value for `N#Cc1cn(C2CC2)c(=O)n(Cc2noc(-c3cccs3)n2)c1=O` was -4.93%; that for `CC(OCc1ccccc1)C(=O)NC1CCN(CC(N)=O)CC1` (stereo unspecified) was -6.55%; that for `COc1ccc(NC(=O)CN2CCS(=O)(=O)CC2)cn1` was -10.4%.

For `CC(=O)NC1CCCN(C(=O)CCc2cccnc2)C1` (stereo unspecified), the cytotoxicity at 70.5 h was 19.2%. On to `Cc1ccc(F)c(S(=O)(=O)NCc2[nH]ncc2Br)c1`, for which the cytotoxicity at 70.5 h was -10%.

On to `CC(C)(C)CC(=O)N1CSCC1C(=O)NC1=NCCS1` (stereo unspecified), for which the cytotoxicity at 70.5 h is 19.4%. The value for `CSCCC(C)NC(=O)c1cccc(-c2n[nH]c(C)n2)c1` (stereo unspecified) was -6.77%; that for `CNC(=O)C(CC(C)C)NC(=O)c1cccc(-c2n[nH]c(C)n2)c1` (stereo unspecified) was 0.903%; that for `Brc1ccc(CN2CCC(NCc3ncc[nH]3)CC2)cc1` was -0.173%. The value for `COC(=O)[C@H](C)NC(=O)Cc1c(C)nc2cc(=O)[nH]n2c1C` was -7.8%; that for `CS(=O)(=O)NCc1ccc2c(c1)CCC2` was -7.69%. Take `CC(C)c1noc(CCC(=O)N(CC2CCOC2)C2CC2)n1` (stereo unspecified): the cytotoxicity at 70.5 h was -8.06%. As to `Cc1ccc(N2CCCN(C(=O)C(C)OCC3CC3)CC2)nn1` (stereo unspecified), the cytotoxicity at 70.5 h was -11.3%. The value for `CC(C)(C)c1nnc(CSc2ccccn2)o1` was -6.49%. The value for `CCc1nnc(CSc2ccccn2)o1` was -9.38%; that for `Clc1cc(Cl)cc(CN2CCC(NCc3cc[nH]n3)CC2)c1` was -4.79%; that for `CC(C)(C)CN(CCC#N)C(=O)c1cccc(CN2CCCC2)c1` was 4.22%. The value for `CCn1cc(NC(=O)NCCN2CCCCCC2=O)cn1` was -6.34%; that for `Cc1cnccc1-c1cnn(CCNC(=O)c2ccccn2)c1C1CC1` was 27.5%; that for `Cc1cnccc1-c1cnn(CCNC(=O)c2cccnc2)c1C1CC1` was -5.95%. Regarding `Cc1cnccc1-c1cnn(CCNC(=O)c2ccncc2)c1C1CC1`, the cytotoxicity at 70.5 h came to 17.4%.

For the molecule `Cc1cnccc1-c1cnn(CCNC(=O)C(C)(C)C)c1C1CC1`, the cytotoxicity at 70.5 h was -9.87%. The value for `CCOC(=O)C1(Cc2ccccc2-c2ccccc2OC)CCNCC1` was 11%. With `CC(C)c1cc(C(=O)NCC2CCCN(C(C)C)C2)n(C)n1` (stereo unspecified), the cytotoxicity at 70.5 h is -0.374%.

Take `Cc1cccc(CNC(Cc2ccsc2)c2nc(C)c(C)s2)n1` (stereo unspecified): the cytotoxicity at 70.5 h was determined as 1.1%. Turning to `CN(Cc1ccnc2ccccc12)C1CCS(=O)(=O)C1` (stereo unspecified), the cytotoxicity at 70.5 h was -6.17%. The value for `CCn1ccc2ccnc(CC3CN(C(=O)Cn4ccnc4C)C3)c21` was -5.67%.
